# Where two headings read alike, the source gives them in different places.
# Key:
# [1] = tested on: porcine brain capillary endothelial cells (PBCEC)
# PBCEC monolayer [2] = tested on: PBCEC monolayer
# PBCEC monolayer [3] = type: cell-based, porcine
# [4] = pig, in vivo, 0.6 mg; cited from earlier work
# [5] = pig, in vivo; cited from earlier work
# Sprague-Dawley rats [6] = conditions: rat, in vivo, po; cited from earlier work
# in vitro = conditions: pig
# Sprague-Dawley rats [7] = conditions: rat, in vivo, po; cited from earlier work; remark: listed apart in the source
# macrophages = conditions: cited from earlier work
# dendric cells = conditions: cited from earlier work
# PBCEC monolayer [8] = conditions: pig
# PBCEC monolayer [9] = conditions: pig; remark: listed apart in the source
# [10] = tested on: normal human astrocytes (NHA); conditions: read-out: IC50, cytotoxic effects; cited from earlier work
structure (smiles),measurement,setting,value
"CC(=O)O[C@@H]1C[C@]2(C)[C@@]3(CO)[C@H](O)C(=O)C(C)=C[C@H]3O[C@H]1[C@@]21CO1 [3-AcDON, 3-acetyldeoxynivalenol]","effect in CCK-8 assay (dehydrogenase activity), in words",[1],significant increase in dehydrogenase activity
same,concentration in the apical compartment,PBCEC monolayer [2]; pig,174 ± 20 nM
same,concentration in the basolateral compartment,PBCEC monolayer [2]; pig,198 ± 16 nM
same,"enrichment in one compartment / active transport, in words",PBCEC monolayer [2]; pig,an active transfer or a noteworthy enrichment of DON or 3-AcDON can be excluded
same,"change of electrical capacitance c CL, in words",PBCEC monolayer [3],"Neither 3-AcDON, nor MON showed significant changes"
same,relative TEER after 48 h,PBCEC monolayer [3],63±9%
"CC1=C[C@H]2O[C@@H]3[C@H](O)C[C@](C)([C@@]2(CO)[C@H](O)C1=O)[C@]31CO1 [DON, deoxynivalenol]","effect in CCK-8 assay (dehydrogenase activity), in words",[1],significant increase in dehydrogenase activity
same,"enrichment in one compartment / active transport, in words",PBCEC monolayer [2],no enrichment in the apical or the basolateral compartment was detected
same,concentration in the apical compartment,PBCEC monolayer [2]; pig,211 ± 15 nM
same,concentration in the basolateral compartment,PBCEC monolayer [2]; pig,199 ± 14 nM
same,systemic bioavailability,[4],48–65%
same,time of maximum concentration in CSF and blood,[5],4.5 h
same,electrical capacitance c CL after 48 h,PBCEC monolayer [3],81±2%
"O=c1cc(O)c1=O [MON, moniliformin]",LD50 cut-off value,Sprague-Dawley rats [6],25 mg/kg body weight
same,administered dose detected in urine,Sprague-Dawley rats [6],38%
same,total recovery in feces,Sprague-Dawley rats [6],less than 1%
same,total recovery in urine,Sprague-Dawley rats [6],42%
same,"effect on cellular viability, in words",[1],no significant effects on the cellular viability
same,"enrichment in one compartment / active transport, in words",PBCEC monolayer [2],not enriched in any compartment
same,concentration in the apical compartment,PBCEC monolayer [2]; pig,237 ± 23 nM
same,concentration in the basolateral compartment,PBCEC monolayer [2]; pig,228 ± 27 nM
same,Papp A→B,in vitro,1.07 ± 0.23 ×10⁻⁶ cm/s
same,administered dose detected in feces,Sprague-Dawley rats [7],2%
same,administered dose excreted via urine,Sprague-Dawley rats [7],20.2-31.5%
same,lowest observed adverse effect level (LOAEL),Sprague-Dawley rats [7],3 mg/kg body weight
same,"effect on viability of macrophages, in words",macrophages,does not reduce the viability of macrophages
same,reduction of cellular viability,dendric cells,20%
same,amount detected in the basolateral compartment,PBCEC monolayer [8],27±6%
same,amount recovered in the apical compartment,PBCEC monolayer [8],76±12%
same,"p c(14C sucrose), sucrose permeability of the monolayer after mycotoxin incubation",PBCEC monolayer [9],0.19±0.05
same,"change of electrical capacitance c CL, in words",PBCEC monolayer [3],"Neither 3-AcDON, nor MON showed significant changes"
same,relative TEER after 48 h,PBCEC monolayer [3],94±15%
"CC(=O)OC[C@]12C[C@H](OC(=O)CC(C)C)C(C)=C[C@H]1O[C@@H]1[C@H](O)[C@@H](OC(C)=O)[C@@]2(C)[C@]12CO2 [T-2 toxin, reference compound]",cellular viability,[1]; 10 µM,< 2%
same,IC50,[10],24 ± 4.5 nM

# — publication PMC4658139 (PLoS ONE, 2015)
